According to patent US20240247015A1, “PHOSPHORUS DERIVATIVES AS NOVEL SOS1 INHIBITORS” (BAYER AKTIENGESELLSCHAFT, priority 2021, published 2024):

The molecules below were run against interaction of human SOS1 (SOS1) with human K-RasG12C (Homo sapiens (Human), UniProt Q07889) (assay: Biochemical assay: hK-RasG12C interaction assay with hSOS1 (HTRF)). Details: GST-hK-RasG12C with His-hSOS1, 60 min incubation at 20° C., mean, read-out: K-RasG12C - SOS interaction assay IC50 (mean).
Sequence of interaction of human SOS1 (SOS1) with human K-RasG12C (Q07889 564-1049 limits assumed): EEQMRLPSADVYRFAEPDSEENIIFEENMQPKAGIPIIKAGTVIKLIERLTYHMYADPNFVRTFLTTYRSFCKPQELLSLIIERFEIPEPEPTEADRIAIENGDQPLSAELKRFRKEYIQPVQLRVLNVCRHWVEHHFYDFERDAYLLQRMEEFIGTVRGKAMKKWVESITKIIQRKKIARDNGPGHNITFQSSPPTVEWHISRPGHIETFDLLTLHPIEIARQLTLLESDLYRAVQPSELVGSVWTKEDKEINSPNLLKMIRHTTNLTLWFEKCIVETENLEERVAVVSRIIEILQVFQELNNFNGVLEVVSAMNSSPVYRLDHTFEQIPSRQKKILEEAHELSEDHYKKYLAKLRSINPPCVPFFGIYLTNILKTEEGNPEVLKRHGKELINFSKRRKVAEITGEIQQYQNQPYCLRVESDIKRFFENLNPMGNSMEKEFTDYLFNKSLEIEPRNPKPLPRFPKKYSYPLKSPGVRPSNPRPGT
Type: binding
Protocol: Biochemical Assay: hK-RasG12C Interaction Assay with hSOS1 This assay quantifies the equilibrium interaction of human SOS1 (SOS1) with human K-Ras^G12^C (K-RasG12C). Detection of the interaction is achieved by measuring homogenous time-resolved fluorescence resonance energy transfer (HTRF) from antiGST-Europium (FRET donor) bound to GST-K-RasG12C to anti-6His-XL665 bound to His-tagged hSOS1 (FRET-acceptor). The assay buffer containes 5 mM HEPES pH 7.4 (Applichem), 150 mM NaCl (Sigma), […] (Promega), 1 mM DTT (Thermofisher), 0.05% BSA Fraction V, pH 7.0, (ICN Biomedicals), 0.0025% (v/v) Igepal (Sigma) and 100 mM KF (FLUKA). The expression and purification of N-terminally GST-tagged human K-RasG12C (termed GST-hK-RasG12C) and N-terminally His-tagged human SOS1 (termed His10-hSOS1) is described in WO 2019/201848, page 220 line 12-34 and page 222, line 13-25 (expression) and page 222, line 26 to page 223, line 17 (purification). Concentrations of protein batches used are optimized to be within the linear range of the HTRF signal. A Ras working solution is prepared in assay buffer containing typically 10 nM GST-hK-RasG12C and 2 nM antiGST-Eu(K) (Cisbio, France). A SOS1 working solution is prepared in assay buffer containing typically 20 nM His-hSOS1 and 10 nM anti-6His-XL665 (Cisbio, France). An inhibitor control solution is prepared in assay buffer containing nM anti-6His-XL665 without SOS1. Fifty nl of a 100-fold concentrated solution of the test compound in DMSO are transferred into a black microtiter test plate (384 or 1536, Greiner Bio-One, Germany). For this, either a Hummingbird liquid handler (Digilab, MA, USA) or an Echo acoustic system (Labcyte, CA, USA) is used. All steps of the assay are performed at 20° C. A volume of 2.5 μl of the Ras working solution is added to all wells of the test plate using a Multidrop dispenser (Thermo Labsystems). After 2 min preincubation, 2.5 μl of the SOS1 working solution are added to all wells except for those wells at the side of the test plate that are subsequently filled with 2.5 μl of the inhibitor control solution. After 60 min incubation the fluorescence is measured with a Pherastar (BMG, Germany) using the HTRF module (excitation 337 nm, emission 1: 620 nm, emission 2: 665 nm). The ratiometric data (emission 2 divided by emission 1) are normalized using the controls (DMSO=0% inhibition, inhibition control wells with inhibitor control solution=100% inhibition). Compounds are tested in duplicates at up to 11 concentrations (for 20 μM, 5,7 μM, 1,6 μM, 0.47 μM, 0.13 μM, 38 nM, 11 nM, 3.1 nM, 0.89 nM, 0.25 nM and 0.073 nM). IC50 values are calculated by 4-Parameter fitting using a commercial software package (Genedata Screener, Switzerland).
With `Cc1nc(N[C@H](C)c2cccc(C(F)(F)C(C)O)c2F)c2cc(P(C)(=O)C(C)C)ncc2n1` (single isomer, unassigned) [Example 83, (2R*)-1,1-difluoro-1-{2-fluoro-3-[(1R)-1-({2-methyl-6-[methyl(propan-2-yl)phosphoryl]pyrido[3,4-d]pyrimidin-4-yl}amino)ethyl]phenyl}propan-2-ol] the IC50 was 0.031 µM.
Molecule `Cc1nc(N[C@H](C)c2cccc(C(F)(F)C(C)O)c2F)c2cc(P(C)(=O)C(C)C)ncc2n1` (single isomer, unassigned) [Example 84, (2R*)-1,1-difluoro-1-{2-fluoro-3-[(1R)-1-({2-methyl-6-[methyl(propan-2-yl)phosphoryl]pyrido[3,4-d]pyrimidin-4-yl}amino)ethyl]phenyl}propan-2-ol] has an IC50 of 0.0241 µM.
`Cc1nc(N[C@H](C)c2cccc(C(F)(F)C(O)C(C)C)c2F)c2cc(P(C)(C)=O)ncc2n1` (single isomer, unassigned) [Example 87, (2R*)-1-{3-[(1R)-1-{[6-(dimethylphosphoryl)-2-methylpyrido[3,4-d]pyrimidin-4-yl]amino}ethyl]-2-fluorophenyl}-1,1-difluoro-3-methylbutan-2-ol] gave an IC50 of 0.00286 µM.
`CCC(O)C(F)(F)c1cccc([C@@H](C)Nc2nc(C)nc3cnc(P(C)(C)=O)cc23)c1F` (single isomer, unassigned) [Example 89, (2R*)-1-{3-[(1R)-1-{[6-(dimethylphosphoryl)-2-methylpyrido[3,4-d]pyrimidin-4-yl]amino}ethyl]-2-fluorophenyl}-1,1-difluorobutan-2-ol] was tested, and the IC50 was 0.00606 µM.
For `Cc1nc(N[C@H](C)c2cccc(C(F)(F)C(C)O)c2F)c2cc(P3(=O)CCCC3)ncc2n1` (single isomer, unassigned) [Example 111, 1-(4-{[(1R)-1-{3-[(2R*)-1,1-difluoro-2-hydroxypropyl]-2-fluorophenyl}ethyl]amino}-2-methylpyrido[3,4-d]pyrimidin-6-yl)-1lambda^5-phospholan-1-one], the IC50 was 0.0215 µM.
`Cc1nc(N[C@H](C)c2cccc(C(F)(F)C(C)O)c2F)c2cc(P3(=O)CCCC3)ncc2n1` (single isomer, unassigned) [Example 112, 1-(4-{[(1R)-1-{3-[(2R*)-1,1-difluoro-2-hydroxypropyl]-2-fluorophenyl}ethyl]amino}-2-methylpyrido[3,4-d]pyrimidin-6-yl)-1lambda^5-phospholan-1-one] gave an IC50 of 0.0112 µM.
`Cc1nc(N[C@H](C)c2cccc(C(F)F)c2F)c2cc(P(C)(=O)C(C)C)ncc2n1` (single isomer, unassigned) [Example 115] was tested, and the IC50 was 0.0803 µM.
With `Cc1nc(N[C@H](C)c2cccc(C(F)F)c2F)c2cc(P(C)(=O)C(C)C)ncc2n1` (single isomer, unassigned) [Example 116] the IC50 was 0.0576 µM.
`CCP(C)(=O)c1cc2c(N[C@H](C)c3cccc(C(F)F)c3F)nc(C)nc2cn1` (single isomer, unassigned) [Example 118] showed an IC50 of 0.0565 µM.
In the case of `CCP(C)(=O)c1cc2c(N[C@H](C)c3cccc(C(F)F)c3F)nc(C)nc2cn1` (single isomer, unassigned) [Example 119], the IC50 is reported as 0.0429 µM.
`CCP(C)(=O)c1cc2c(N[C@H](C)c3cccc(C(F)(F)CO)c3F)nc(C)nc2cn1` (single isomer, unassigned) [Example 131] showed an IC50 of 0.0115 µM.
Work on `CCP(C)(=O)c1cc2c(N[C@H](C)c3cccc(C(F)(F)CO)c3F)nc(C)nc2cn1` (single isomer, unassigned) [Example 132] yielded an IC50 of 0.0117 µM.
In the case of `Cc1nc(N[C@H](C)c2cccc(C(F)(F)CO)c2F)c2cc(P(C)(=O)C(C)C)ncc2n1` (single isomer, unassigned) [Example 134], the IC50 is reported as 0.0252 µM.
`Cc1nc(N[C@H](C)c2cccc(C(F)(F)CO)c2F)c2cc(P(C)(=O)C(C)C)ncc2n1` (single isomer, unassigned) [Example 135] gave an IC50 of 0.017 µM.
